According to patent publication US20260083865A1, “PROSTATE SPECIFIC MEMBRANE ANTIGEN (PSMA) LIGANDS AND USE THEREOF” (priority 2022, published 2026):
Read-outs that look alike come from different tables or passages of the source. Numbered stars: 1 amine (or outer) side, 2 acyl side, 3 side chain; on linkers, the order of the positions; unused ones are H or OH. Bridge positions count the residues as written; N and C are the ends. Square brackets hold non-standard residues; d marks the D form. Peptide text beside a SMILES is read from it. * marks the point of attachment. TtdsdLys(DOTA)NH2 = NC(=O)[C@@H](CCCCNC(=O)CN1CCN(CC(=O)O)CCN(CC(=O)O)CCN(CC(=O)O)CC1)NC(=O)CCC(=O)NCCCOCCOCCOCCCN*; DOTA = O=C(O)CN1CCN(CC(=O)O)CCN(CC(=O)*)CCN(CC(=O)O)CC1; Phe(3-Cl) = N[C@@H](Cc1cccc(Cl)c1)C(=O)O; Phe(4-Cl) = N[C@@H](Cc1ccc(Cl)cc1)C(=O)O; Ethylenediamine = C(CN[*:2])N[*:1]; X1 = O=C(CC1CCN([*:1])CC1)[*:2]; NMeL = CN[C@@H](CC(C)C)C(=O)O; Tle = CC(C)(C)[C@H](N)C(=O)O; Nle = CCCC[C@H](N)C(=O)O; Aib = CC(C)(N)C(=O)O; CO = O=C([*:1])[*:2]; NHBu = CCCCN*

Legend:
[1] = target: T1, Fc-fusion protein of human PSMA (hPSMA-Fc) (Homo sapiens, UniProt Q04609); test: Surface plasmon resonance assay (Biacore T200, single cycle kinetic); format: binding; conditions: hPSMA-Fc, 25° C., read-out: pKD CAT (converted)
T1 construct: purchased Acro Biosystems PSA-H5264
T1 sequence (Q04609 44-750 limits assumed): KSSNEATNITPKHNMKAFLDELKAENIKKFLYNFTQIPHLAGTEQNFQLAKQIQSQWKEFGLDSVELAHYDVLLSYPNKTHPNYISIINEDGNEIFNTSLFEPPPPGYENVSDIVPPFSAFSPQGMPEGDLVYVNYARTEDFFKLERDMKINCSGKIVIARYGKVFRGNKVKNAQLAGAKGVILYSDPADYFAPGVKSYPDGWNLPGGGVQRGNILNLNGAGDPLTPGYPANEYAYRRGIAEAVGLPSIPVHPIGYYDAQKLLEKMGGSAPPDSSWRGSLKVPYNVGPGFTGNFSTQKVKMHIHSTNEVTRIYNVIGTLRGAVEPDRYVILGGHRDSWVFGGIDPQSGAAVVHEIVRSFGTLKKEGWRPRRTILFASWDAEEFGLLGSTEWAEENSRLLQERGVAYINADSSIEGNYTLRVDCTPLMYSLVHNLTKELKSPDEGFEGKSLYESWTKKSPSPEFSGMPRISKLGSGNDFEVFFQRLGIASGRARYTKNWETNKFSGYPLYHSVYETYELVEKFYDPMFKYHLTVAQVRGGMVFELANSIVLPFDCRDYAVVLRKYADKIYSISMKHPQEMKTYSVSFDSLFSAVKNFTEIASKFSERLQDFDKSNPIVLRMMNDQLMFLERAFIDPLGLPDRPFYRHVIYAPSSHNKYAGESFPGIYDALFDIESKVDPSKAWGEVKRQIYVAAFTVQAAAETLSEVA
Procedure, shortened: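 KD, expressed as pKD, came from 1:1 Langmuir fits of reference- and buffer-blank-subtracted SPR data. The runs were single-cycle kinetics at 25° C in HBST/0.1% DMSO over human PSMA-Fc, captured to ~1000 RU on a peptide-coated CM5 surface and regenerated with 10 mM glycine pH 1.5.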

[2] = target: T2, PSMA-expressing C4-2 cells (Homo sapiens, UniProt Q04609); test: FACS binding assay (competition with 50 nM PSM-0183); conditions: read-out: pIC50 [C4-2] CAT (converted)
T2 construct: PSMA-expressing C4-2 cells (ATCC, Cat. No. CRL-3314) were cultured in RPMI-1640; host or cells: C4-2 cells
T2 sequence (Q04609 whole entry): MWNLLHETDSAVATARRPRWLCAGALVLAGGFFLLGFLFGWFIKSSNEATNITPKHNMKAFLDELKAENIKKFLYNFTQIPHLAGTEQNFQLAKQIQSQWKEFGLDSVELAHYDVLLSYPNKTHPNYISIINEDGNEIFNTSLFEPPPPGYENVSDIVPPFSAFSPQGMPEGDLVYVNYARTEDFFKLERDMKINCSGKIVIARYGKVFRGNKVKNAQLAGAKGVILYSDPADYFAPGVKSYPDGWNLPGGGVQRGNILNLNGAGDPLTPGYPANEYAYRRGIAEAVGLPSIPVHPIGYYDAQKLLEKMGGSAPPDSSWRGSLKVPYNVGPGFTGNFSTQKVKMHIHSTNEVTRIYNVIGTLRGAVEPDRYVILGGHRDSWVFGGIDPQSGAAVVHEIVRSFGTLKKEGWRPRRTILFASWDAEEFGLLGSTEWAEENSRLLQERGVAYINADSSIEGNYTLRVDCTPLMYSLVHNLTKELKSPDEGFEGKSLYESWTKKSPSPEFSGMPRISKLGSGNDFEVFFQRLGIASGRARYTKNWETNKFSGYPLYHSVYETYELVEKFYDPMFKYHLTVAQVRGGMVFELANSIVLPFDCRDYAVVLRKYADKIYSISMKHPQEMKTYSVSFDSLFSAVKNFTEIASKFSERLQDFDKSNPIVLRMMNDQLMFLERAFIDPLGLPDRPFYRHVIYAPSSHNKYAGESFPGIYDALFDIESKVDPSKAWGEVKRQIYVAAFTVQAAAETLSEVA
Procedure, shortened: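 Competition format: fluorescent tracer PSM-0183 (50 nM) displaced from PSMA on C4-2 cells by a test compound titration over 1 h at 4 °C. Bound tracer was quantified as flow-cytometric AF488 median fluorescence after washing. Four-parameter logistic fits of MFI data gave IC50 and pIC50.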

[3] = pKD category for PSMA SPR activity assay
[4] = pIC50 category of FACS binding, C4-2 cells

Row | Kd ([1]; PSMA SPR assay, pKD category) | IC50 ([2]; FACS binding, PSMA-expressing C4-2 cells, pIC50 category) | Kd [1, 3] | IC50 [2, 4] | Compound
1 | > 501 nM | > 3160 nM | – | – | CC(=O)N[C@@H](Cc1ccccc1)C(=O)N[C@H]1CSSC[C@@H](C(=O)N[C@@H](CC(C)C)C(=O)N[C@H](C(=O)N[C@@H](CC(=O)O)C(=O)NCCCOCCOCCOCCCNC(=O)CCC(=O)N[C@H](CCCCNC(=O)CN2CCN(CC(=O)O)CCN(CC(=O)O)CCN(CC(=O)O)CC2)C(N)=O)[C@@H](C)O)NC(=O)[C@H](CC(N)=O)NC(=O)[C@H](C)NC(=O)[C@H](CCCNC(=N)N)NC(=O)[C@H](CCCCN)NC1=O [PSM-0323, Ac-Phe-[Cys-Lys-Arg-Ala-Asn-Cys]-Lou-Thr-Asp-Ttds-lys(DOTA)-NH2] (Ac-FCKRANCLTD-{TtdsdLys(DOTA)NH2}; disulfide 2-7)
2 | – | – | < 12.6 nM | < 200 nM | CC(=O)N[C@H](C(=O)NC(C)(C)C(=O)N[C@@H](Cc1ccc(Cl)cc1)C(=O)N[C@H]1CSSC[C@@H](C(=O)N[C@H](C(=O)NCCN)C(C)(C)C)NC(=O)[C@H](CC(N)=O)NC(=O)C(C)(C)NC(=O)[C@H](CCCNC(=N)N)NC(=O)[C@H](CCCCN)NC1=O)[C@@H](C)O [PSM-0393, Ac-Thr-Aib-Pcf-[Cys-Lys-Arg-Aib-Asn-Cys]-Tle-en] (Ac-T[Aib][Phe(4-Cl)]CKR[Aib]NC[Tle]-Ethylenediamine; disulfide 4-9)
3 | – | – | 126 to 501 nM | 200 to 1260 nM | CCCC[C@H](NC(=O)[C@@H]1CSSC[C@H](NC(=O)[C@H](Cc2ccccc2)NC(=O)[C@H](C)NC(=O)[C@H](C)NC(C)=O)C(=O)N[C@@H](CCCCN)C(=O)N[C@@H](CCCNC(=N)N)C(=O)N[C@@H](C)C(=O)N[C@@H](CC(N)=O)C(=O)N1)C(=O)N[C@H](C(=O)N[C@@H](CC(=O)O)C(N)=O)[C@@H](C)O [PSM-0491, Ac-Ala-Ala-Phe-[Cys-Lys-Arg-Ala-Asn-Cys]-Nle-Thr-Asp-NH2] (Ac-AAFCKRANC[Nle]TD-NH2; disulfide 4-9)
4 | – | – | < 12.6 nM | < 200 nM | CCCCNC(=O)N[C@H](C(=O)NC(C)(C)C(=O)N[C@@H](Cc1cccc(Cl)c1)C(=O)N[C@H]1CSSC[C@@H](C(=O)N[C@H](C(=O)N[C@H](C(=O)N2CCC(CC(=O)N[C@H](CCCCNC(=O)CN3CCN(CC(=O)O)CCN(CC(=O)O)CCN(CC(=O)O)CC3)C(N)=O)CC2)[C@@H](C)O)C(C)(C)C)NC(=O)[C@H](CC(N)=O)NC(=O)C(C)(C)NC(=O)[C@H](CCCNC(=N)N)NC(=O)[C@H](CCCCN)NC1=O)[C@@H](C)O [PSM-0470, nBuCAyl-Thr-Aib-Mcf-[Cys-Lys-Arg-Aib-Asn-Cys]-Tle-Thr-Cmp-lys(DOTA)-NH2] ({NHBu-CO}-T[Aib][Phe(3-Cl)]CKR[Aib]NC[Tle]T[X1][dK](DOTA)-NH2; disulfide 4-9)
5 | – | – | 126 to 501 nM | 200 to 1260 nM | CC(C)C[C@@H](C(=O)N[C@H](C(N)=O)[C@@H](C)O)N(C)C(=O)[C@@H]1CSSC[C@H](NC(=O)[C@H](Cc2ccc(Cl)cc2)NC(=O)C(C)(C)NC(=O)[C@@H](NC(=O)CC2CCN(C(=O)CN3CCN(CC(=O)O)CCN(CC(=O)O)CCN(CC(=O)O)CC3)CC2)[C@@H](C)O)C(=O)N[C@@H](CCCCN)C(=O)N[C@@H](CCCNC(=N)N)C(=O)NC(C)(C)C(=O)N[C@@H](CC(N)=O)C(=O)N1 [PSM-0497, DOTA-Cmp-Thr-Aib-Pcf-[Cys-Lys-Arg-Aib-Asn-Cys]-Nml-Thr-NH2] ({DOTA}-[X1]T[Aib][Phe(4-Cl)]CKR[Aib]NC[NMeL]T-NH2; disulfide 5-10)
6 | – | – | < 12.6 nM | < 200 nM | CC(=O)N[C@H](C(=O)NC(C)(C)C(=O)N[C@@H](Cc1cccc(Cl)c1)C(=O)N[C@H]1CSSC[C@@H](C(=O)N[C@H](C(=O)N[C@H](C(=O)N2CCC(CC(=O)N[C@H](CCCCNC(=O)CN3CCN(CC(=O)O)CCN(CC(=O)O)CCN(CC(=O)O)CC3)C(N)=O)CC2)[C@@H](C)O)C(C)(C)C)NC(=O)[C@H](CC(N)=O)NC(=O)C(C)(C)NC(=O)[C@H](CCCNC(=N)N)NC(=O)[C@H](CCCCN)NC1=O)[C@@H](C)O [PSM-0486, Ac-Thr-Aib-Mcf-[Cys-Lys-Arg-Aib-Asn-Cys]-Tle-Thr-Cmp-lys(DOTA)-NH2] (Ac-T[Aib][Phe(3-Cl)]CKR[Aib]NC[Tle]T[X1][dK](DOTA)-NH2; disulfide 4-9)
